These are literature values, as cited in PubChem BioAssay AID1259409 (Chemical Carcinogenesis Research Information System (CCRIS), 2018).

Molecules are shown by their SMILES.

The data set has as its system rodent chemically induced tumor inhibition, incidence and multiplicity. As to the kind of experiment: CCRIS tumor inhibitor studies. To be noted: Route [Inhibitor]: ORAL, Promoter: NONE USED.

Take `CCOc1ccc2c(c1)C(C)=CC(C)(C)N2`: the outcome (Carcinogen: N-ETHYL-N-HYDROXYETHYLNITROSAMINE, 13147-25-6, Dose [Inhibitor]: 0.8% IN DIET BEGINNING 1 WK AFTER LAST CARCINOGEN TREATMENT AND CONTINUING THROUGH DURATION OF STUDY (STUDY DURATION: 32, Species: RAT, Strain/Sex: F344/MALE, Target Tissue: Type of Lesion: KIDNEY: ADENOCARCINOMA, Dose [Carcinogen]: 0.1% IN DRINKING WATER FOR 2 WK AT BEGINNING OF STUDY) is recorded as 0/23 (0%), 3/27 (11%), -11%, not significant. In addition, the “tumour outcome (control, treated, inhibition, significance)” value is, setting by setting: (Carcinogen: N-ETHYL-N-HYDROXYETHYLNITROSAMINE, 13147-25-6, Dose [Inhibitor]: 0.8% IN DIET BEGINNING 1 WK AFTER LAST CARCINOGEN TREATMENT AND CONTINUING THROUGH DURATION OF STUDY (STUDY DURATION: 32, Species: RAT, Strain/Sex: F344/MALE, Target Tissue: Type of Lesion: KIDNEY: ADENOMA, Dose [Carcinogen]: 0.1% IN DRINKING WATER FOR 2 WK AT BEGINNING OF STUDY) 5/23 (22%), 17/27 (63%), -186%, p<0.001; (Carcinogen: N-ETHYL-N-HYDROXYETHYLNITROSAMINE, 13147-25-6, Dose [Inhibitor]: 0.8% IN DIET BEGINNING 1 WK AFTER LAST CARCINOGEN TREATMENT AND CONTINUING THROUGH DURATION OF STUDY (STUDY DURATION: 32, Species: RAT, Strain/Sex: F344/MALE, Target Tissue: Type of Lesion: LIVER: HEPATOCELLULAR CARCINOMA, Dose [Carcinogen]: 0.1% IN DRINKING WATER FOR 2 WK AT BEGINNING OF STUDY) 11/23 (48%), 3/27 (11%), 77%, p<0.05; (Carcinogen: URETHANE, 51-79-6, Dose [Inhibitor]: 0.75% IN DIET 1/WK FOR 24 HR AFTER OVERNIGHT FAST TREATMENT REPEATED FOR 8 CONSECUTIVE WK BEGINNING 1 D AFTER CARCINOGEN, Species: MOUSE, Strain/Sex: STRAIN A/MALE, Target Tissue: Type of Lesion: LUNG: TYPE II ALVEOLAR CELL TUMORS, CLARA CELL TUMORS, Dose [Carcinogen]: 500 MG/KG ONCE AT 8 WK OF AGE) 100%, 100%, 0%, not significant; (Dose [Inhibitor]: 0.05% DIET FOR 2 WK STARTING 2 WK PRIOR TO START OF CARCINOGEN TREATMENT (STUDY DURATION: 48 WK), Species: RAT, Strain/Sex: F344/MALE, Target Tissue: Type of Lesion: LIVER: CELL TUMOR, Dose [Carcinogen]: 4 PPM IN DIET DAILY FOR 6 WK) 3/11 (27%), 1/15 (7%), 74%, not calculated; (Dose [Inhibitor]: 0.05% IN DIET FOR 2 WK STARTING 2 WK PRIOR TO INITIATION OF CARCINOGEN TREATMENT (STUDY DURATION: 48 WK), Species: RAT, Strain/Sex: F344/MALE, Target Tissue: Type of Lesion: LIVER: LIVER CELL TUMOR, Dose [Carcinogen]: 4 PPM IN DIET FOR 6 WK FOLLOWED BY 40 WK ON CONTROL DIET) 3/11 (27%), 1/12 (8%), 70%, not calculated; (Dose [Inhibitor]: 0.5% DIET FOR 2 WK STARTING 2 WK PRIOR TO START OF CARCINOGEN TREATMENT (STUDY DURATION: 48 WK), Species: RAT, Strain/Sex: F344/MALE, Target Tissue: Type of Lesion: LIVER: CELL TUMOR, Dose [Carcinogen]: 4 PPM IN DIET DAILY FOR 6 WK) 3/11 (27%), 0/15 (0%), 100%, not calculated. The “tumour outcome (control, treated, inhibition, significance)” value is reported as 3/11 (27%), 3/15 (20%), 26%, not significant (Dose [Inhibitor]: 0.5% DIET FOR 2 WK STARTING POST CARCINOGEN TREATMENT AND FOLLOWED BY 40 WK ON CONTROL DIET (STUDY DURATION: 48 WK), Species: RAT, Strain/Sex: F344/MALE, Target Tissue: Type of Lesion: LIVER: CELL TUMOR, Dose [Carcinogen]: 4 PPM DIET DAILY FOR 6 WK); 3/11 (27%), 0/15 (0%), 100%, not calculated (Dose [Inhibitor]: 0.5% DIET FOR 6 WK ADMINISTERED CONCURRENTLY WITH CARCINOGEN TREATMENT FOLLOWED BY 42 WK ON CONTROL DIET (STUDY DURATION, Species: RAT, Strain/Sex: F344/MALE, Target Tissue: Type of Lesion: LIVER: CELL TUMOR, Dose [Carcinogen]: 4 PPM DIET DAILY FOR 6 WK); 3/11 (27%), 0/15 (0%), 100%, not calculated (Dose [Inhibitor]: 0.5% IN DIET FOR 2 WK STARTING 2 WK PRIOR TO INITIATION OF CARCINOGEN (STUDY DURATION: 48 WK), Species: RAT, Strain/Sex: F344/MALE, Target Tissue: Type of Lesion: LIVER: LIVER CELL TUMOR, Dose [Carcinogen]: 4 PPM IN DIET FOR 6 WK FOLLOWED BY 40 WK ON CONTROL DIET); 3/11 (20%), 0/9 (0%), 100%, not calculated (Dose [Inhibitor]: 0.5% IN DIET FOR 6 WK ADMINISTERED SIMULTANEOUSLY WITH CARCINOGEN FOLLOWED BY 42 WK ON CONTROL DIET (STUDY DURATION: 48, Species: RAT, Strain/Sex: F344/MALE, Target Tissue: Type of Lesion: LIVER: LIVER CELL TUMOR, Dose [Carcinogen]: 4 PPM IN DIET FOR 6 WK).
